The source of these data is EP0183439B1, “Polycyclic compounds, their preparation and use and formulations containing them” (THE WELLCOME FOUNDATION LIMITED, priority 1984, dated 1986).

Counter-ions that a name gives are not always drawn.

Data set [1] in a line: LD20 in the P388/0 test (toxicity in mice). It is filed as in vivo. How it is done:
(§1) CD2-F₁ mice, of the same sex, weighing within a 3 g range surrounding 20 g, are used for this test. Control and test animals are injected intraperitoneally with a suspension of 10⁶ viable P388/0 tumor cells on day 0. In each test several dose levels which bracket the LD₂₀ for the compound are evaluated; each dose level group contains 6 animals. The test compounds are prepared either in physiologic saline containing 0.05% Tween 80 or distilled water containing 5% dextrose and are administered intraperitoneally on days, 1, 5, and 9 relative to tumor implant.

For data set [2], the system named is P388/0 tumor cells. The data set is described as follows: Lymphocytic Leukemia P388/0 Test. Type of data set: in vivo, CD2-F₁ mice. Particulars: ratio of median survival time treated/control at optimal dose; i.p. days 1, 5, 9; 10⁶ P388/0 cells i.p. on day 0.
Source text: Methods for evaluating the antitumor activity of these compounds are essentially those used in the Tumor Panel by the Development Therapeutics Program, Division of Cancer Treatment, National Cancer Institute, A. Goldin, et al., Methods in Cancer Research, Vol. XVI, p. 165, Academic Press (1979). Some modifications, in dose level and schedule have been made to increase the testing efficiency.
as §1
Doses are on a mg/kg basis according to individual animals' body weights. The day of death for each animal is recorded, the median identified for each group and the ratios of median survival time for treated (T)/control (C) groups are calculated. The criterion for activity is T/C x 100 120%.

The mark [3] stands for this setting: intraperitoneally on days 1, 5 and 9.

`CC(CO)(CO)NCc1ccc2oc3ccccc3c2c1.Cl` [Example 5, 2-[(2-Dibenzofuranylmethyl)amino]-2-methyl-1,3-propanediol hydrochloride] registered an LD₂₀ in data set [1] (setting [3]) of 225 mg/kg. Besides, the “T/C x 100% (Exluding 30 Day Survivors)” value in data set [2] is “+120%”.

Consider `CC(CO)(CO)NCc1cc2ccsc2c2ccccc12` [Example 10C, 2-Methyl-2-[(naphtho[1,2-b]thiophene-5-ylmethyl)amino]-1,3-propanediol], for which the LD₂₀ in data set [1] (setting [3]) came to 115 mg/kg. Also, the “T/C x 100% (Exluding 30 Day Survivors)” value in data set [2] is recorded as “+125%”.

The compound `CC(CO)(CO)NCc1ccc2sc3ccccc3c2c1.Cl` [Example 2, 2-[(2-Dibenzothiophenylmethyl)amino]-2-methyl-1,3-propanediol hydrochloride] came in with an LD₂₀ in data set [1] (setting [3]) of 200 mg/kg. Further, the “T/C x 100% (Exluding 30 Day Survivors)” value in data set [2] is listed as “+130%”.

In turn, `CC(CO)(CO)NCc1c2ccccc2cc2sccc12` [Example 6B, 2-[(Naphtho[2,3-b]thiophen-4-ylmethyl)amino]-2-methyl-1,3-propanediol hydrochloride 1/20 hydrate] yielded an LD₂₀ in data set [1] (mouse, in vivo, ip) of 150 mg/kg. Further, the “T/C x 100% (Exluding 30 Day Survivors)” value in data set [2] is recorded as “+125%”.

For the compound `CC(CO)(CO)NCc1c2ccccc2nc2ccccc12` [Example 13, 2-[(9-Acridinylmethyl)amino]-2-methyl-1,3-propanediol dihydochoride], the LD₂₀ in data set [1] (mouse, in vivo, ip) is 540 mg/kg. Also, the “T/C x 100% (Exluding 30 Day Survivors)” value in data set [2] was “+130%”.

For the compound `CC(CO)(CO)NCc1cccc2sc3ccccc3c12` [Example 1, 2-[(1-Dibenzothiophenylmethyl)amino]-2-methyl-1,3-propanediol hydrochloride], the LD₂₀ in data set [1] (mouse, in vivo, ip) stood at 240 mg/kg. The “T/C x 100% (Exluding 30 Day Survivors)” value in data set [2] was “+140%”.

Regarding `CC(CO)(CO)NCc1cccc2oc3ccccc3c12` [Example 4B, 2-[(1-Dibenzofuranylmethyl)amino]-2-methyl-1,3-propanediol hydrochloride], the LD₂₀ in data set [1] (setting [3]) amounted to 200 mg/kg. The “T/C x 100% (Exluding 30 Day Survivors)” value in data set [2] is “+140%”.

`CC(CO)(CO)NCc1cccc2c1sc1ccccc12.Cl` [Example 3, 2-[(4-Dibenzothiophenylmethyl)amino]-2-methyl-1,3-propanediol hydrochloride] showed an LD₂₀ in data set [1] (setting [3]) of 200 mg/kg. In data set [2], the “T/C x 100% (Exluding 30 Day Survivors)” value was “+155%”.
